Laboratory results: the supplement of paper PMC10307832

How the values were obtained:
Assay in all cases: relative viability (nuclei count vs DMSO), 5 days (fraction); higher = more cells survive
[1] = compound: C#Cc1cccc(Nc2ncnc3cc(OCCOC)c(OCCOC)cc23)c1 [Erlotinib] + CS(=O)(=O)CCNCc1ccc(-c2ccc3ncnc(Nc4ccc(OCc5cccc(F)c5)c(Cl)c4)c3c2)o1 [Lapatinib] (partner 2 µM)
Outline: (§1)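 Medians of duplicate plates are given as relative viability. That measure is the nuclei count in treated wells divided by the count in vehicle wells. Counts were taken on 4× images of lung cancer cell lines in 1536-well plates, 5 days after pin-tool dosing the day after seeding with one drug alone or a fixed anchor-drug dose plus five library-drug doses (not always all listed) in √10 steps.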

[2] = compound: C#Cc1cccc(Nc2ncnc3cc(OCCOC)c(OCCOC)cc23)c1 [Erlotinib] + C[C@@H](Oc1cc(-c2cnn(C3CCNCC3)c2)cnc1N)c1c(Cl)ccc(F)c1Cl [Crizotinib] (partner 1 µM)
Outline: as §1

[3] = compound: C#Cc1cccc(Nc2ncnc3cc(OCCOC)c(OCCOC)cc23)c1 [Erlotinib] + N=C(N)NC(=N)NCCc1ccccc1 [Phenformin] (partner 250 µM)
Outline: as §1

[4] = compound: O=C(Nc1c[nH]nc1-c1nc2ccc(CN3CCOCC3)cc2[nH]1)NC1CC1 [AT9283] + CC(=O)Nc1cccc(-n2c(=O)n(C3CC3)c(=O)c3c(Nc4ccc(I)cc4F)n(C)c(=O)c(C)c32)c1 [Trametinib] (partner 0.02 µM)
Outline: as §1

[5] = compound: O=C(Nc1c[nH]nc1-c1nc2ccc(CN3CCOCC3)cc2[nH]1)NC1CC1 [AT9283] + CS(=O)(=O)N1CCN(Cc2cc3nc(-c4cccc5[nH]ncc45)nc(N4CCOCC4)c3s2)CC1 [Pictilisib] (partner 1 µM)
Outline: as §1

Cell Line | relative viability ([1]; first compound 0.02 µM) | relative viability ([1]; first compound 0.2 µM) | relative viability ([1]; first compound 0.6325 µM) | relative viability ([1]; first compound 2 µM) | relative viability ([2]; first compound 0.02 µM) | relative viability ([2]; first compound 0.2 µM) | relative viability ([2]; first compound 0.6325 µM) | relative viability ([2]; first compound 2 µM) | relative viability ([3]; first compound 0.02 µM) | relative viability ([3]; first compound 0.2 µM) | relative viability ([3]; first compound 0.6325 µM) | relative viability ([3]; first compound 2 µM) | relative viability ([4]; first compound 0.003 µM) | relative viability ([4]; first compound 0.03 µM) | relative viability ([4]; first compound 0.09487 µM) | relative viability ([4]; first compound 0.3 µM) | relative viability ([5]; first compound 0.003 µM) | relative viability ([5]; first compound 0.03 µM) | relative viability ([5]; first compound 0.09487 µM) | relative viability ([5]; first compound 0.3 µM)
201T | 1.01 | 1.03 | 1.08 | 0.934 | 1 | 0.943 | 0.905 | 0.951 | 0.468 | 0.408 | 0.465 | 0.421 | 0.734 | 0.753 | 0.388 | 0.338 | 0.642 | 0.731 | 0.476 | 0.396
A549 | 0.957 | 0.979 | 1.06 | 0.94 | 0.799 | 0.796 | 0.792 | 0.551 | 0.225 | 0.196 | 0.178 | 0.199 | – | – | – | – | 0.503 | 0.0938 | 0.0787 | 0.0772
A-427 | 1.04 | 1.02 | 1.12 | 0.94 | 0.966 | 1.03 | 0.887 | 0.838 | 0.282 | 0.344 | 0.423 | 0.335 | 0.706 | 0.501 | 0.334 | 0.396 | 0.744 | 0.606 | 0.19 | 0.208
ABC-1 | 1.26 | 1.25 | 1.3 | 0.971 | 1.07 | 1.14 | 1.44 | 1.18 | 0.248 | 0.248 | 0.217 | 0.233 | – | – | – | – | 0.76 | 0.269 | 0.232 | 0.256
BEN | 0.689 | 0.802 | 1.03 | 0.735 | 0.957 | 0.738 | 0.913 | 0.779 | 0.276 | 0.248 | 0.273 | 0.269 | 0.838 | 1.17 | 0.568 | 0.368 | 0.501 | 0.555 | 0.188 | 0.224
CAL-12T | 0.815 | 0.704 | 0.68 | 0.543 | 0.964 | 0.636 | 0.356 | 0.249 | 0.543 | 0.396 | 0.339 | 0.262 | 0.421 | 0.399 | 0.211 | 0.152 | 0.354 | 0.297 | 0.23 | 0.31
COR-L23 | 0.944 | 0.979 | 1.16 | 0.96 | 0.718 | 0.681 | 0.666 | 0.614 | 0.439 | 0.452 | 0.448 | 0.416 | 0.668 | 0.245 | 0.166 | 0.161 | 0.83 | 0.132 | 0.107 | 0.123
COR-L 105 | 0.368 | 0.322 | 0.335 | 0.36 | – | 0.656 | 0.39 | 0.198 | 0.525 | 0.245 | 0.322 | 0.216 | 0.399 | 0.395 | 0.328 | 0.297 | 0.405 | 0.273 | 0.279 | 0.28
